Data from patent US20100111992A1, “CYTOM[…] AND METHODS OF USE THEREOF” (THE REGENTS OF THE UNIVERSITY OF CALIFORNIA, priority 2006, published 2010).

Key:
Type in all cases: cell-based, human
PD-L2 (a PD-1 ligand) = experiment: Surface expression of PD-L2; conditions: Donor CMV001 vs Donor BB008, FIG. 11
PD-L1 (a PD-1 ligand) = experiment: Surface expression of PD-L1; conditions: Donor CMV001 vs Donor BB008, FIG. 10
PD-1 = PD-1 Taqman; conditions: for ΔCT (BB011) / ΔΔCT(BB011): Donor BB011; for ΔCT (BB011): No Pep 3.57; for ΔΔCT(BB011) / ΔΔCT(BB013) / ΔΔCT(BB008) / ΔΔCT(CMV001): relative to No Pep; for ΔCT(BB013) / ΔΔCT(BB013): Donor BB013; for ΔCT(BB013): No Pep 4.745; for ΔCT (BB008) / ΔΔCT(BB008): Donor BB008; for ΔCT (BB008): No Pep 6.4; for ΔCT(CMV001) / ΔΔCT(CMV001): Donor CMV001; for ΔCT(CMV001): No Pep 5.08
enriched CD4 cells = experiment: Intracellular TNFα in CD4 cells (FACS); conditions: for immunogenicity (reflected by increased TNFα), CMV-infected subject vs healthy CMV+ subject: Donor CMV001 vs Donor BB008, FIG. 7; for TNFα synthesis as compared to control: FIG. 4, donors SA005 and SA006, in words; for TNFα stimulation (FACS data): over multiple HLA-type donors; for immunogenicity reflected by TNFα: six donors
Description: (§1) These experiments focus on confirming the in vitro recognition of the novel class I and class II CMV epitopes predicted to be strong MHC binders by validated computer algorithms using T cells from CMV-positive healthy donors. Phenotypical analysis of CD4+ T cell effectors included a marker of activation (CD69) as well as T cell inflammatory cytokines (TNFα, IFNγ, and IL-2). Functional analysis of CD4+ and CD8+ T cell effectors was measured by proliferative epitope-specific responses via ^3H incorporation and IFNγ expression measured by ELISA, respectively.
In addition, these cells are all chemokine receptor CCR7 negative, reflecting their T effector status.
Enriched CD4 cells are incubated with peptide-pulsed irradiated autologous peripheral blood mononuclear cells, restimulated with peptide on day 7, stimulated with low-dose IL-2 (20 U/ml) on day 10 and 14, and then evaluated for intracellular cytokine production on day 17.

enriched CD4+ cells = experiment: Intracellular IL-2 expression in enriched CD4+ cells; conditions: for expression of IL-2 as compared to no peptide: FIG. 2, in words; for expression of IL-2 in CD4+ cells: FIG. 2, day 17, cells without peptide 3.18%
Description: as §1
Enriched CD4+ cells are incubated with peptide-pulsed irradiated autologous PBMCs, restimulated with peptide on day 7, stimulated with low-dose IL-2 (20 U/ml) on day 9, and then evaluated for intracellular cytokine production on day 17. FIG. 2A illustrates no peptide, while FIGS. 2B and 2C show stimulation by peptides 1DR and 4DR, respectively.

[1] = system: PD-1 (programmed cell death-1); experiment: Surface expression of PD-1; conditions: Donor CMV001 vs Donor BB008, FIG. 9
Excerpt: This correlates with latency versus infection in the two subjects.

[2] = system: CD4+ induced cells (antigen-stimulated T effector cells); experiment: Proliferation assay of CD4+ induced cells (3H incorporation); conditions: for stimulation index: as compared to cells without peptide
Description: as §1
Wells are then pulsed with 1 μCi of ^3H for the last 18 hours. Proliferation is then measured by calculating the absorption of ^3H on a beta counter. PHA is a positive control while APCs alone are the negative control. This translates into stimulation indices of 30 and 45.8 in antigen-specific proliferation assays as compared to cells without peptide.
Antigen-stimulated T effector cells are incubated with autologous, irradiated total peripheral blood mononuclear cells for 96 hours. Wells are pulsed with 1 μCi of ^3H for the last 18 hours. Proliferation is then measured by calculating the absorption of ^3H on a beta counter. APCs alone are the negative control.
Data from the six donors SA001, SA005, SA006, BB006, BB008, CMV001, BB011, and BB013 are shown. No peptide versus 3DR (P<0.001); no peptide versus 4DR (P<0.05); 1DR versus 3DR (P<0.05); 2DR versus 3DR (P<0.01); and 3DR versus 6DR (P<0.05).

CD4+ T cell effectors = experiment: IFNg in CD4 cells (FACS); conditions: for immunogenicity (reflected by increased IFNg), CMV-infected subject vs healthy CMV+ subject: Donor CMV001 vs Donor BB008, FIG. 8; for IFNg stimulation (FACS data): over multiple HLA-type donors; for immunogenicity reflected by IFNg: six donors
Description: as §1

CD8+ T cell effectors = experiment: IFNγ expression measured by ELISA, CD8+ T cell effectors (class I peptides)
Description: as §1, with “As such, these” for “These”, “confirming that” for “confirming”
as §1

[3] = excluding CMV-infected subject (CMV001), FIG. 12
[4] = including CMV-infected subject (CMV001), FIG. 13
[5] = FIG. 1, 96 hours with autologous irradiated PBMCs, 3H last 18 hours

| Sequence | surface expression of PD-L2, CMV-infected subject vs healthy CMV+ subject (PD-L2 (a PD-1 ligand)) | surface expression of PD-L1, CMV-infected subject vs healthy CMV+ subject (PD-L1 (a PD-1 ligand)) | ΔCT (BB011) (PD-1) | ΔΔCT(BB011) (PD-1) | ΔCT(BB013) (PD-1) | ΔΔCT(BB013) (PD-1) | immunogenicity (reflected by increased TNFα), CMV-infected subject vs healthy CMV+ subject (enriched CD4 cells) | TNFα stimulation (FACS data) (enriched CD4 cells) | immunogenicity reflected by TNFα (enriched CD4 cells; [3]) | ΔCT (BB008) (PD-1) | ΔΔCT(BB008) (PD-1) | ΔCT(CMV001) (PD-1) | ΔΔCT(CMV001) (PD-1) | surface expression of PD-1, CMV-infected subject vs healthy CMV+ subject [1] | immunogenicity (reflected by increased IFNg), CMV-infected subject vs healthy CMV+ subject (CD4+ T cell effectors) | IFNg stimulation (FACS data) (CD4+ T cell effectors) | immunogenicity reflected by IFNg (CD4+ T cell effectors; [3]) | other results |
| --- | --- | --- | --- | --- | --- | --- | --- | --- | --- | --- | --- | --- | --- | --- | --- | --- | --- | --- |
| AGILARNLVPMVATV [6DR, human CMV pp65-derived class II peptide, Human (DRB1)] | more surface expression of PD-L2 | more surface expression of PD-L1 | 3.845 | 0.275 | 5.05 | 0.305 |  |  |  |  |  |  |  |  |  |  |  |  |
| DVYYTSAFVFPTKDV [4DR] | more surface expression of PD-L2 | more surface expression of PD-L1 | 3.345 | −0.225 | 4.57 | −0.175 | greater than in a healthy CMV+ subject | peptide-specific TNFα and IFNg stimulation | increased TNFα and IFNg | 1.185 | −5.215 | 1.165 | −3.915 | more surface expression of PD-1 | greater than in a healthy CMV+ subject | peptide-specific TNFα and IFNg stimulation | increased TNFα and IFNg | TNFα synthesis as compared to control (enriched CD4 cells): stimulate TNFα synthesis; immunogenicity reflected by TNFα (enriched CD4 cells; [4]): increased TNFα and IFNg; expression of IL-2 as compared to no peptide (enriched CD4+ cells): stimulate expression of IL-2; expression of IL-2 in CD4+ cells (enriched CD4+ cells): 15.13%; proliferation, counts per minute [2, 5]: 15,572 cpm; stimulation index ([2]; FIG. 1): 45.8; immunogenicity reflected by IFNg (CD4+ T cell effectors; [4]): increased TNFα and IFNg |
| HVRVSQPSLILVSQY [3DR, human CMV pp65-derived class II peptide, Human (DRB1)] |  |  | 4.08 | 0.51 | 5.995 | 1.25 | greater than in a healthy CMV+ subject | peptide-specific TNFα and IFNg stimulation | increased TNFα and IFNg | 5.635 | −0.765 | 2.545 | −2.535 | more surface expression of PD-1 | greater than in a healthy CMV+ subject | peptide-specific TNFα and IFNg stimulation | increased TNFα and IFNg | expression of TNFα in CD4 cells (enriched CD4 cells; donor not given): 34.58%; stimulation index ([2]; first of two CMV+ healthy donors (FIG. 3)): 83.05; proliferation, counts per minute ([2]; first of two CMV+ healthy donors (FIG. 3; presumably Donor SA005)): 30,231.67 cpm; stimulation index ([2]; second of two CMV+ healthy donors (FIG. 3)): 147.03; proliferation, counts per minute ([2]; second of two CMV+ healthy donors (FIG. 3; presumably Donor SA006)): 49,648.33 cpm; functional response (proliferation data) ([2]; summary in words): leads to a functional response |
| MISVLGPISGHVLKA [2DR, human CMV pp65-derived class II peptide, Human (DRB1)] |  |  | 2.94 | −0.63 | 5.26 | 0.515 |  |  |  | 5.525 | −0.875 | 5.005 | −0.075 |  |  |  |  |  |
| MSIYVYALPLKMLNI [1DR, human CMV pp65-derived class II peptide, Human (DRB1)] | more surface expression of PD-L2 | more surface expression of PD-L1 | 3.67 | 0.1 | 5.74 | 0.995 | greater than in a healthy CMV+ subject | peptide-specific TNFα and IFNg stimulation | increased TNFα and IFNg | 5.385 | −1.015 | 3.635 | −1.445 | more surface expression of PD-1 | greater than in a healthy CMV+ subject | peptide-specific TNFα and IFNg stimulation | increased TNFα and IFNg | TNFα synthesis as compared to control (enriched CD4 cells): stimulate TNFα synthesis; expression of TNFα in CD4 cells (enriched CD4 cells; donor SA005): 15.9%; immunogenicity reflected by TNFα (enriched CD4 cells; [4]): increased TNFα and IFNg; expression of IL-2 as compared to no peptide (enriched CD4+ cells): stimulate expression of IL-2; expression of IL-2 in CD4+ cells (enriched CD4+ cells): 39.58%; proliferation, counts per minute [2, 5]: 10,201 cpm; stimulation index ([2]; FIG. 1): 30; immunogenicity reflected by IFNg (CD4+ T cell effectors; [4]): increased TNFα and IFNg |
| SGKLFMHVTLGSDVE [5DR, human CMV pp65-derived class II peptide, Human (DRB1)] | more surface expression of PD-L2 | more surface expression of PD-L1 | 3.97 | 0.4 | 6.73 | 1.985 |  |  |  | 6.26 | −0.14 | 3.53 | −1.55 |  |  |  |  |  |
| YTSAFVFPT [CMV65182-190, human CMV pp65-derived class I peptide, Human (A2)] |  |  |  |  |  |  |  |  |  |  |  |  |  |  |  |  |  | immunogenicity among the class I peptides (CD8+ T cell effectors; IFNγ ELISA): most immunogenic; IFNγ measured by ELISA (mean) (CD8+ T cell effectors; class I peptides, T cells from CMV-positive healthy donors): 1999 pg/mL |
